Data reported in PubChem BioAssay AID256 (DTP/NCI, 2004).
Inconclusive results and toxic doses are left out. Rule for the calls: active = survival T/C of 150% or more; inactive = T/C below 125% in these data.

System: CD2F1 mice, L1210 leukemia ip, survival T/C
Assay: NCI In Vivo Anticancer Drug Screen. Data for tumor model L1210 Leukemia (intraperitoneal) in CD2F1 (CDF1) mice
Conditions: higher = longer survival
Experimental: The antitumor activity of compounds was measured in mice bearing transplantable tumors. Survival or tumor size were measured and the results are expressed as the measurement made in the treated group (T) divided by the measurement made in the vehicle treated control group (C). The tumor model used in this assay is L1210 Leukemia (intraperitoneal) in CD2F1 (CDF1) mice

[1] = endpoint: mean survival time, dose: 100.0 mg/kg/injection, schedule: Q01DX009 (ip), vehicle: saline with Tween-80
[2] = endpoint: mean survival time, dose: 200.0 mg/kg/injection, schedule: Q01DX009 (ip), vehicle: saline with Tween-80
[3] = endpoint: mean survival time, dose: 400.0 mg/kg/injection, schedule: Q01DX009 (ip), vehicle: saline with Tween-80
[4] = endpoint: mean survival time, dose: 100.0 mg/kg/injection, schedule: Q04DX003 (ip), vehicle: saline
[5] = endpoint: mean survival time, dose: 200.0 mg/kg/injection, schedule: Q04DX003 (ip), vehicle: saline
[6] = endpoint: mean survival time, dose: 100.0 mg/kg/injection, schedule: Q01DX001 (ip), vehicle: saline with Tween-80
[7] = endpoint: mean survival time, dose: 200.0 mg/kg/injection, schedule: Q01DX001 (ip), vehicle: saline with Tween-80
[8] = endpoint: mean survival time, dose: 400.0 mg/kg/injection, schedule: Q01DX001 (ip), vehicle: saline with Tween-80
[9] = endpoint: mean survival time, dose: 100.0 mg/kg/injection, schedule: Q01DX001 (ip), vehicle: saline
[10] = endpoint: mean survival time, dose: 200.0 mg/kg/injection, schedule: Q01DX001 (ip), vehicle: saline
[11] = endpoint: mean survival time, dose: 100.0 mg/kg/injection, schedule: Q04DX003 (ip), vehicle: saline with Tween-80
[12] = endpoint: mean survival time, dose: 200.0 mg/kg/injection, schedule: Q04DX003 (ip), vehicle: saline with Tween-80
[13] = endpoint: mean survival time, dose: 400.0 mg/kg/injection, schedule: Q04DX003 (ip), vehicle: saline with Tween-80
[14] = endpoint: mean survival time, dose: 400.0 mg/kg/injection, schedule: Q01DX001 (ip), vehicle: saline

Measured: T/C

O=C1c2c(O)ccc(O)c2C(=O)c2c(NCCO)ccc(NCCO)c21
inactive: [1] 103 % of control | [2] 110 % of control | [3] 113 % of control

COC(=O)C1(C)CSCCC1=O (centres undefined)
inactive: [4] 107 % of control | [5] 96 % of control | endpoint: mean survival time, dose: 400.0 mg/kg/injection, schedule: Q04DX003 (ip), vehicle: saline 96 % of control

CCCn1c2ccccc2c2ccccc21
inactive: endpoint: mean survival time, dose: 100.0 mg/kg/injection, schedule: Q04DX003 (ip), vehicle: Klucel (hydroxypropylcellulose) (HPC) 91 % of control | endpoint: mean survival time, dose: 200.0 mg/kg/injection, schedule: Q04DX003 (ip), vehicle: Klucel (hydroxypropylcellulose) (HPC) 105 % of control | endpoint: mean survival time, dose: 400.0 mg/kg/injection, schedule: Q04DX003 (ip), vehicle: Klucel (hydroxypropylcellulose) (HPC) 96 % of control

COc1c(C2OC(CO)C(O)C2O)nn(C)c1C(N)=O (centres undefined)
inactive: endpoint: median survival time, dose: 48.5 mg/kg/injection, schedule: Q01DX005 (ip), vehicle: saline 100 % of control | endpoint: median survival time, dose: 97.0 mg/kg/injection, schedule: Q01DX005 (ip), vehicle: saline 102 % of control | endpoint: median survival time, dose: 193.9 mg/kg/injection, schedule: Q01DX005 (ip), vehicle: saline 100 % of control

CC(=O)c1ccc2c([N+](=O)[O-])ccc3c2c1CC3
inactive: [6] 97 % of control | [7] 91 % of control | [8] 94 % of control

Cc1cc(I)cs1
inactive: [9] 108 % of control | [10] 102 % of control

CN(C)CCCNC(CC#N)CCC#N (centres undefined)
inactive: [4] 96 % of control | [5] 95 % of control

CCCCN(CCCC)CCCC
inactive: [9] 93 % of control

O=[N+]([O-])O.[Er]
inactive: endpoint: mean survival time, dose: 25.0 mg/kg/injection, schedule: Q04DX003 (ip), vehicle: saline 96 % of control | endpoint: mean survival time, dose: 50.0 mg/kg/injection, schedule: Q04DX003 (ip), vehicle: saline 87 % of control | [4] 87 % of control

NC1=NC(=O)/C(=C/c2ccccc2)S1
inactive: [11] 93 % of control | [12] 97 % of control | [13] 97 % of control

CC(O)CN(C)C (centres undefined)
inactive: [9] 98 % of control | [10] 103 % of control | [14] 103 % of control

Cc1nc(-c2ccccc2)[nH]c(=O)c1Cc1cc2c(cc1O)OCC2
inactive: [9] 100 % of control | [10] 101 % of control | [14] 100 % of control

CN(C)CCCNC1=C(Cl)C(=O)C(NCCCN(C)C)=C(Cl)C1=O
inactive: endpoint: median survival time, dose: 6.25 mg/kg/injection, schedule: Q01DX009 (ip), vehicle: Klucel (hydroxypropylcellulose) (HPC) 97 % of control | endpoint: median survival time, dose: 12.5 mg/kg/injection, schedule: Q01DX009 (ip), vehicle: Klucel (hydroxypropylcellulose) (HPC) 94 % of control | endpoint: median survival time, dose: 25.0 mg/kg/injection, schedule: Q01DX009 (ip), vehicle: Klucel (hydroxypropylcellulose) (HPC) 96 % of control | endpoint: median survival time, dose: 50.0 mg/kg/injection, schedule: Q01DX009 (ip), vehicle: Klucel (hydroxypropylcellulose) (HPC) 97 % of control

COc1cc(OC)cc(C2=NNc3n[nH]c(=S)n3N2)c1
inactive: [1] 91 % of control | [11] 93 % of control | [2] 93 % of control | [12] 90 % of control | [13] 102 % of control

C1=C\C[n+]2ccccc2-c2cccc[n+]2C/1
inactive: endpoint: mean survival time, dose: 7.5 mg/kg/injection, schedule: Q01DX001 (ip), vehicle: saline 95 % of control | endpoint: mean survival time, dose: 7.5 mg/kg/injection, schedule: Q04DX003 (ip), vehicle: saline 96 % of control | endpoint: mean survival time, dose: 15.0 mg/kg/injection, schedule: Q01DX001 (ip), vehicle: saline 95 % of control | endpoint: mean survival time, dose: 15.0 mg/kg/injection, schedule: Q04DX003 (ip), vehicle: saline 97 % of control | endpoint: mean survival time, dose: 30.0 mg/kg/injection, schedule: Q01DX001 (ip), vehicle: saline 98 % of control

CCCCCCC(=O)/C=C\C(C)=C\c1ccccc1
inactive: [6] 94 % of control | [1] 98 % of control | [7] 100 % of control | [2] 98 % of control | [8] 94 % of control | [3] 98 % of control

Cc1c(Cl)c(C)c(Cl)c(O)c1Cl (tested in a mixture with another compound)
inactive: endpoint: mean survival time, dose: 50.0 mg/kg/injection, schedule: Q01DX005 (ip), vehicle: saline with Tween-80 97 % of control | endpoint: mean survival time, dose: 100.0 mg/kg/injection, schedule: Q01DX005 (ip), vehicle: saline with Tween-80 91 % of control

CC(NC(=O)c1cnc2ccccc2n1)C(=O)NC(C(=O)O)C(C)C (centres undefined)
inactive: [9] 100 % of control | [10] 100 % of control | [14] 102 % of control

COC1C(C)OC(OC2CC(C)(O)Cc3cc4c(c(O)c32)C(=O)c2c(O)cc3c(c2C4=O)OC2OC3(C)C(O)C(N(C)C)C2O)C(OC)C1(C)OC (centres undefined)
inactive: endpoint: mean survival time, dose: 0.6 mg/kg/injection, schedule: Q01DX009 (ip), vehicle: other 115 % of control | endpoint: mean survival time, dose: 1.25 mg/kg/injection, schedule: Q04DX003 (ip), vehicle: other 101 % of control | endpoint: mean survival time, dose: 2.5 mg/kg/injection, schedule: Q04DX003 (ip), vehicle: other 109 % of control | endpoint: mean survival time, dose: 5.0 mg/kg/injection, schedule: Q04DX003 (ip), vehicle: other 112 % of control | endpoint: mean survival time, dose: 10.0 mg/kg/injection, schedule: Q04DX003 (ip), vehicle: other 109 % of control | endpoint: mean survival time, dose: 20.0 mg/kg/injection, schedule: Q04DX003 (ip), vehicle: other 102 % of control

CN(C)c1ccc(N=Nc2ccc3c(c2)C(=O)c2ccccc2C3=O)cc1
inactive: endpoint: mean survival time, dose: 100.0 mg/kg/injection, schedule: Q04DX003 (ip), vehicle: other 95 % of control | endpoint: mean survival time, dose: 200.0 mg/kg/injection, schedule: Q04DX003 (ip), vehicle: other 93 % of control | endpoint: mean survival time, dose: 400.0 mg/kg/injection, schedule: Q04DX003 (ip), vehicle: other 98 % of control

CCOC(=O)Nc1ccc2nnn(C3OC(CO)C(O)C3O)c2n1 (centres undefined)
inactive: endpoint: mean survival time, dose: 12.5 mg/kg/injection, schedule: Q01DX005 (ip), vehicle: water 94 % of control | endpoint: mean survival time, dose: 25.0 mg/kg/injection, schedule: Q01DX005 (ip), vehicle: water 102 % of control | endpoint: mean survival time, dose: 50.0 mg/kg/injection, schedule: Q01DX005 (ip), vehicle: water 98 % of control | endpoint: mean survival time, dose: 100.0 mg/kg/injection, schedule: Q01DX005 (ip), vehicle: water 102 % of control | endpoint: mean survival time, dose: 200.0 mg/kg/injection, schedule: Q01DX005 (ip), vehicle: water 94 % of control | endpoint: mean survival time, dose: 400.0 mg/kg/injection, schedule: Q01DX005 (ip), vehicle: water 94 % of control

Cc1ccc2c(c1)C(c1ccccc1)(c1ccccc1)OC2=O
inactive: [11] 98 % of control | [12] 91 % of control | [13] 95 % of control

Cc1ccn(C)c(=N)c1
inactive: endpoint: mean survival time, dose: 100.0 mg/kg/injection, schedule: Q01DX009 (ip), vehicle: saline sonified 97 % of control | [11] 94 % of control | endpoint: mean survival time, dose: 200.0 mg/kg/injection, schedule: Q01DX009 (ip), vehicle: saline sonified 98 % of control | [12] 93 % of control | [13] 93 % of control

S=C(CCc1ccc2c(c1)CCCC2)N1CCOCC1
inactive: [11] 98 % of control | [12] 98 % of control | [13] 97 % of control

NCCSC(C[N+](=O)[O-])c1ccccc1Cl (centres undefined)
inactive: endpoint: median survival time, dose: 6.25 mg/kg/injection, schedule: Q01DX009 (ip), vehicle: saline 102 % of control | endpoint: median survival time, dose: 12.5 mg/kg/injection, schedule: Q01DX009 (ip), vehicle: saline 107 % of control | endpoint: median survival time, dose: 25.0 mg/kg/injection, schedule: Q01DX009 (ip), vehicle: saline 112 % of control | endpoint: median survival time, dose: 50.0 mg/kg/injection, schedule: Q01DX009 (ip), vehicle: saline 123 % of control | endpoint: median survival time, dose: 100.0 mg/kg/injection, schedule: Q01DX009 (ip), vehicle: saline 123 % of control

C/C=C(\C)C(=O)N/N=C\c1cc(Cl)cc(Cl)c1O
inactive: endpoint: mean survival time, dose: 12.5 mg/kg/injection, schedule: Q01DX009 (ip), vehicle: olive oil, sesame oil, peanut oil 100 % of control | endpoint: mean survival time, dose: 25.0 mg/kg/injection, schedule: Q01DX009 (ip), vehicle: olive oil, sesame oil, peanut oil 96 % of control | endpoint: mean survival time, dose: 50.0 mg/kg/injection, schedule: Q01DX009 (ip), vehicle: olive oil, sesame oil, peanut oil 94 % of control | endpoint: mean survival time, dose: 100.0 mg/kg/injection, schedule: Q01DX009 (ip), vehicle: olive oil, sesame oil, peanut oil 98 % of control | endpoint: mean survival time, dose: 200.0 mg/kg/injection, schedule: Q01DX009 (ip), vehicle: olive oil, sesame oil, peanut oil 98 % of control | endpoint: mean survival time, dose: 400.0 mg/kg/injection, schedule: Q01DX009 (ip), vehicle: olive oil, sesame oil, peanut oil 100 % of control
